# Measured values as given in US6544989B2, “Benzazoles: benzoxazole, benzthiazole and benzimidazole derivatives” (Syngenta Limited, priority 1998, dated 2003).
# How the values were obtained:
# [1] = tested on: Puccinia recondita; test: Fungicidal test, Puccinia recondita (PUCCRT) on wheat, PRCO; type: in vivo; settings: METHOD 2 (unbanded)
# [2] = tested on: Phytophthora infestans lycopersici; type: in vivo; settings: METHOD 2 (unbanded)
# [3] = tested on: Musca domestica; settings: 500 ppm by weight; knockdown assessed 15 minutes after treatment
# Protocol: (§1) The activities of individual compounds of formula (I) were determined using a variety of pests. With the exception of nematodes, the pests were treated with a liquid composition containing 500 parts per million (ppm) by weight of a compound unless otherwise stated. Each composition was made by dissolving the compound in an acetone and ethanol (50:50 by volume) mixture and diluting the solution with water containing 0.05% by volume of a wetting agent, SYNPERONIC NP8, until the liquid composition contained the required concentration of the compound.
# The test procedure adopted with regard to each pest, except nematodes, was essentially the same and composed supporting a number of the pests on a medium which was usually a substrate, a host plant or a foodstuff on which the pests feed, and treating either or both the medium and the pests with a composition. Pest mortality was assessed usually between three and five days after treatment Knockdown of housefly (Musca domestica) was assessed 15 minutes after treatment
# [4] = tested on: Meloidogyne incognita; test: Nematode test, J2 infective juveniles of Meloidogyne incognita, mortality; settings: 12.5 ppm; J2 infective juveniles suspended in solution; mortality after three days
# Protocol: as §1
# The test procedure for nematodes involved dissolving the compound in an acetone and ethanol (50:50 by volume) mixture and diluting the solution with water to obtain a final concentration of the compound of 12.5 ppm. J2 infective juveniles of Meloidogyne incognita were suspended in the solution in a glass vial and mortality assessed after a period of three days.
# [5] = tested on: Septoria nodorum; test: Fungicidal test, Septoria nodorum (LEPTNO) on wheat, PRCO; type: in vivo; settings: METHOD 2 (unbanded)
# [6] = tested on: Erysiphe graminis f.sp. tritici; test: Fungicidal test, Erysiphe graminis f.sp. tritici (ERYSGT) on wheat, PRCO; type: in vivo; settings: METHOD 2 (unbanded)
# [7] = tested on: Uncinula necator; test: Fungicidal test, Uncinula necator (UNCINE) on vines, PRCO; type: in vivo; settings: METHOD 2 (unbanded)
# [8] = tested on: Venturia inaequalis; test: Fungicidal test, Venturia inaequalis (VENTIN) on apples, PRCO; type: in vivo; settings: METHOD 2 (unbanded)
SMILES,PUCCRT 1 d Prot/Foir PRCO [1],PHYTIN 1 d Prot/Foir PRCO [2],"MUSCDO AC = Musca domestica (knockdown), score [3]","MELGIN = Meloidogyne incognita, grading of mortality (score) [4]",LEPTNO 1 d Prot/Foir PRCO [5],ERYSGT 1 d Prot/Foir PRCO [6],UNCINE 1 d Prot/Foir PRCO [7],VENTIN 1 d Prot/Foir PRCO [8],ERYSGT 6 hr Prot/Foir PRCO [6]
COCCOCN(C(=O)Cc1ccc2oc(CC(C)(C)C)nc2c1)c1snc(C)c1Cl [15(M3)],6,98,0 (0 indicates less than 40% mortality),0 (0 indicates less than 40% mortality),,,,,
Cc1nsc(NC(=O)Cc2ccc3oc(C4CCCCC4)nc3c2)c1Cl [35(A3)],100,84,0 (0 indicates less than 40% mortality),0 (0 indicates less than 40% mortality),−15,93,,,
Cc1nsc(NC(=O)Cc2ccc3oc(C4(C)CCCCC4)nc3c2)c1Cl [36(A3)],91,100,,0 (0 indicates less than 40% mortality),2,72,99,44,
Cc1nsc(NC(=O)Cc2ccc3oc(CC4CCCC4)nc3c2)c1Cl [42(A3)],99,100,,0 (0 indicates less than 40% mortality),11,92,100,74,92
Cc1nsc(NC(=O)Cc2ccc3oc(C=Cc4ccc([N+](=O)[O-])cc4)nc3c2)c1Cl [63(A3)],69,66,,,2,40,14,13,
Cc1nsc(NC(=O)Cc2ccc3oc(CSc4ccccc4)nc3c2)c1Cl [173(A3)],63,77,,0 (0 indicates less than 40% mortality),2,16,−12,50,
Cc1nsc(NC(=O)Cc2ccc3oc(SCC#N)nc3c2)c1Cl [228(A3)],6,66,0 (0 indicates less than 40% mortality),0 (0 indicates less than 40% mortality),,,,,
Cc1nsc(NC(=O)Cc2ccc3oc(C(c4ccccc4)c4ccccc4)nc3c2)c1Cl [246(A3)],13,79,,0 (0 indicates less than 40% mortality),27,16,−7,13,
Cc1nsc(NC(=O)Cc2ccc3oc(-c4ccccc4Cl)nc3c2)c1Cl [253(A3)],99,98,,0 (0 indicates less than 40% mortality),8,94,100,34,94
COc1ccccc1-c1nc2cc(CC(=O)Nc3snc(C)c3Cl)ccc2o1 [305(A3)],81,74,,0 (0 indicates less than 40% mortality),−2,16,19,−6,16
Cc1nsc(NC(=O)Cc2ccc3oc(-c4cccs4)nc3c2)c1Cl [330(A3)],99,99,,0 (0 indicates less than 40% mortality),37,87,14,6,
Cc1nsc(NC(=O)Cc2ccc3oc(-c4ccncc4)nc3c2)c1Cl [339(A3)],31,0,0 (0 indicates less than 40% mortality),0 (0 indicates less than 40% mortality),0,−7,,,
Cc1nsc(NC(=O)Cc2ccc3oc(O)nc3c2)c1Cl [351(A3)],,,0 (0 indicates less than 40% mortality),0 (0 indicates less than 40% mortality),,,11,,
Cc1nsc(NC(=O)Cc2ccc3oc(S)nc3c2)c1Cl [352(A3)],100,100,0 (0 indicates less than 40% mortality),0 (0 indicates less than 40% mortality),,,,,
